Test results reported in patent US7417025B2, “Use of poly-α2,8-sialic acid mimetic peptides to modulate NCAM functions” (Centre National de la Recherche Scientifique, priority 2002, dated 2008).
“Also recorded” adds a separate entry of the source.

Assays:
[1] = test system: subventricular zone explants (neuronal precursors); experiment: Subventricular zone (SVZ) explant culture: cell migration in vitro; assay type: cell-based, mouse; conditions: 0.4 μM peptide
30H12 antibody = experiment: ELISA with peptide-BSA conjugate on 30H12-coated plates; assay type: binding; conditions: no competitor, FIG. 12A
Excerpt: FIG. 12A: ELISA using 30H12 anti-PSA monoclonal antibody-coated plates.
The specificity of the cyclic peptides was investigated in an ELISA assay using plates coated with 30H12 antibody, following the protocol as described above for the competitive ELISA, with the exception that the competitor was omitted.

chick retina axons = experiment: Intravitreal injection in chick embryo, retinal whole mount: axon fasciculation and guidance in vivo; conditions: injected into chicken embryo eyes at E3, retina observed at E9
Method: The dashed rectangle indicates the area from which photographs were taken. Arrows point toward the optic fissure. Axons of E9 chick retina injected at E3 with the reverse peptide (C,F) or the p65 peptide (D,G,E,H). Arrowheads show examples of axons that leave their fascicle and run perpendicularly to it.
Injections were performed as described in Monnier et al. (Developmental Biology, 2001, 229, 1-14). Briefly, a 2×2 cm window was cut into the shell over E3 chick embryos. One μl of Fast green with 10 mM of p65 or reverse peptide was injected into the right eye vitreous body using a capillary. After a five-days incubation at 37° C., (E8) retinae were dissected, spread onto nitrocellulose filters (MILIPORE), and fixed with 4% paraformaldehyde solution in PBS. Two small DiI (1,1′-dioctadecyl-3,3,3′,3′-tetramethylindocarbocyanine perchlorate) crystals were applied dorsally to the optic fissure. Retinae were stored in the dark at 37° C. for 10 days until the dye reached the axonal growth cones in the fissure, mounted in glycerol:PBS (9:1, v:v) and analysed using confocal microscopy.

[2] = test system: Mouse dorsal root ganglion explants (E13.5); experiment: Dorsal root ganglion explant culture: neurite outgrowth and fasciculation; assay type: cell-based
Method: E13.5 DRGs were dissected out from mice embryos in HBSS medium and seeded on glass coverslips coated with polylysine or with peptides linked to BSA. Explants were cultured in the presence or the absence of the peptides under soluble form (40 μM) in two ml of neurobasal medium (DMEM/Ham's F12, 3:1 (V/V), GIBCO, buffered with 20 mM Hepes), supplemented as described in Faivre-Sarrailh et al., J. Cell. Sci., 1999, 18, 3015-3027 and Chazal et al., J.Neurosci., 2000, 20, 1446-1457.
Fixed DRGs (Dorsal Root ganglia) explants and sections were incubated at 4° C. respectively 2 hr with an anti-neurofilament (SMI-31, dilution 1:800, STERNBERGER MONOCLONALS) and overnight with an anti-PSA antibody (dilution 1:200, Rougon et al, J. Cell. Biol., 1986, 103, 2429-2437). Revelation was performed by 1 hr incubation with the corresponding fluorescent-labeled secondary antibody (Goat anti-mouse IgM or IgG conjugated with texas red, IMMUNOTECH)
(§1) After 48 h in culture, explants were examining directly (SVZ) or after overnight fixation with a 4% paraformaldehyde solution in PBS and immunostaining (DRGs). Observation was done using 2, 5×, 5×, 10× and 32× objectives (Axiovert 35M, ZEISS). Images were collected with a video camera (Cool View, PHOTONIC SCIENCE) and analysed using image-processing software (Visiolab1000, BIOCOM). Mean migration distance (calculated on five different experiments, including at least five explants per condition) or mean length of the longest neurite (calculated on two different experiments, including at least eight explants per condition), was the distance in micrometers between the explant edge and the border of the cell migration front. Four measurements were performed for each explant. The significance of the differences between the control and the different experimental conditions was calculated by Student's t test.
Mouse dorsal root ganglion explants (E13.5) were cultured in the presence of p65 and p66 cyclic mimetic peptides, either in soluble form or coated on the microplates as BSA conjugates. Cells cultured in the absence of peptides or in the presence of reverse peptides (coated or in soluble form) were used as controls.

[3] = test system: subventricular zone explants (neuronal precursors); experiment: Subventricular zone (SVZ) explant culture: cell migration in vitro; assay type: cell-based, mouse
Method: Cultures of SVZ explants were performed as described in Chazal et al., precited. Briefly, 1-day-old mice were killed by rapid decapitation. Brains were dissected out and sectionned by Vibratome (Leica). The SVZ from the lateral wall of the anterior lateral ventricle horn was dissected out in HBSS medium (LIFE TECHNOLOGIES) and cut into 200-300 μm diameter explants. The explants were mixed with Matrigel (BECKTON DICKINSON) and cultured in four-well dishes. After polymerisation, the gel was overlaid with 400 μl of serum-free medium containing B-27 supplement (LIFE TECHNOLOGIES), in the presence or the absence of 40 μM of peptides (p65, p66, reverse p65, p21 or p22) and 70 U of Endo N per milliliter.
as §1

MenB anti-PSA antibody = experiment: Competitive binding to PSA-NCAM expressing cells (MenB)
Method: FIGS. 12B, 12C and 12D: competitive binding to PSA-NCAM expressing cells. B: pre-incubation of p65 (1 mM) or p66 (1 mM) with MenB anti-PSA antibody. C: 30H12 anti-PSA antibody without peptide. D: pre-incubation of p65 (1 mM) or p66 (1 mM) with 30H12 anti-PSA antibody.
(§2) The specificity of p65 and p66 peptides was tested in a competition assay using anti-PSA antibodies and PSA-NCAM expressing cells. […] The binding specificity was examined in greater detail by testing peptide recognition by another anti-PSA mononclonal antibody (MenB). […] Thus, p65 and p66 mimotopes appear to be specific for a unique (idiotypic) determinant.

[4] = test system: 30H12 monoclonal antibody; experiment: Competitive binding to PSA-NCAM expressing cells (30H12); parameters: dose or concentration left out as unconfirmed
Method: FIGS. 12B, 12C and 12D: competitive binding to PSA-NCAM expressing cells. B: pre-incubation of p65 (1 mM) or p66 (1 mM) with MenB anti-PSA antibody. C: 30H12 anti-PSA antibody without peptide. […]
as §2

[5] = peptide in coated form (BSA conjugate)
[6] = peptide in soluble form (40 μM), versus controls

Question: Which “Increase in the rate of migration of the neuronal precursors compared with the control without peptide” value [1] does the source give for CSKIASMETGCG [p66] here?
Answer: Its value is “+26%”.

Question: And the “Binding of cyclic peptides to 30H12 antibody in ELISA” value (30H12 antibody)?
Answer: The value was “highest binding”.

Question: What about the “Axon guidance and fasciculation in retina in vivo” value (chick retina axons) of the same sequence?
Answer: The value was “axons guidance and fasciculation defects”.

Question: And the Fasciculation [2, 5]?
Answer: The Fasciculation was “opposite effect on fasciculation”.

Question: What about the Neurite outgrowth [2, 5] of the same sequence?
Answer: The Neurite outgrowth was “no effect on neurite outgrowth; also recorded: no significant increase”.

Question: And the Axonal growth [2, 6]?
Answer: Its Axonal growth is “significant increase in axonal growth”.

Question: What about the “Fasciculation of axon bundles” value [2, 6] of the same sequence?
Answer: Its value is “clear defasciculation of axon bundles”.

Question: What about the “Increase of neurite outgrowth compared to the controls” value ([2]; peptide in soluble form, mean length of the longest neurite) of the same sequence?
Answer: The value was 21%.

Question: What about the “Rate of migration of the neuronal precursors and chain-like arrangement” value ([3]; SVZ explants in Matrigel, FIG. 4) of the same sequence?
Answer: Its value is “increases the rate of migration”.

Question: And the “PSA-dependence of the migration effect” value ([3]; with endo N treatment)?
Answer: The value was “abolished by endo N treatment”.

Question: What about the “Recognition of PSA-NCAM by MenB after pre-incubation with peptide” value (MenB anti-PSA antibody; FIG. 12C) of the same sequence?
Answer: The value was “did not prevent recognition of PSA-NCAM”.

Question: And the “Antibody specificity of peptide binding (30H12 versus MenB)” value (MenB anti-PSA antibody; in words)?
Answer: Its value is “bind only to 30H12”.

Question: What about the “Binding of 30H12 monoclonal antibody to PSA-NCAM expressing cells after pre-incubation with peptide” value [4] of the same sequence?
Answer: The value was “prevented its binding”.
